The supplement of paper PMC10307832

Tests used:
Experiment in all cases: relative viability (nuclei count vs DMSO), 5 days (fraction); higher = more cells survive
COR-L 105 = system: COR-L 105
Outline: (§1)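 Five library-drug doses in √10 steps were combined with a fixed anchor-drug dose, or a single drug was given alone, by pin tool to lung cancer cell lines in 1536-well plates the day after seeding. Nuclei were stained and counted after 5 days. Relative viability is the nuclei count in treated wells over that in vehicle wells, taken as the median of duplicate plates.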

EPLC-272H = system: EPLC-272H
Outline: as §1

HCC-15 = system: HCC-15
Outline: as §1

HCC-366 = system: HCC-366
Outline: as §1

HCC-44 = system: HCC-44
Outline: as §1

HCC-78 = system: HCC-78
Outline: as §1

HCC-827 = system: HCC-827
Outline: as §1

LCLC-103H = system: LCLC-103H
Outline: as §1

NCI-H1437 = system: NCI-H1437
Outline: as §1

NCI-H1792 = system: NCI-H1792
Outline: as §1

NCI-H1944 = system: NCI-H1944
Outline: as §1

NCI-H2085 = system: NCI-H2085
Outline: as §1

NCI-H3122 = system: NCI-H3122
Outline: as §1

NCI-H358 = system: NCI-H358
Outline: as §1

NCI-H661 = system: NCI-H661
Outline: as §1

NCI-H727 = system: NCI-H727
Outline: as §1

PC-14 = system: PC-14
Outline: as §1

SK-LU-1 = system: SK-LU-1
Outline: as §1

SK-MES-1 = system: SK-MES-1
Outline: as §1

UMC-11 = system: UMC-11
Outline: as §1

For COCC1(CO)C(=O)C2CCN1CC2 (stereo not given) [PRIMA-1MET] + Cc1nc(NC(=O)N2CCC[C@H]2C(N)=O)sc1-c1ccnc(C(C)(C)C(F)(F)F)c1 [Alpelisib] (partner 2 µM), the relative viability (COR-L 105; first compound 0.2 µM) was 1.11, the relative viability (COR-L 105; first compound 0.6325 µM) was 0.997 and the relative viability (COR-L 105; first compound 2 µM) was 1.14. It also gave a relative viability (COR-L 105; first compound 6.325 µM) of 0.852, a relative viability (COR-L 105; first compound 20 µM) of 0.176 and a relative viability (EPLC-272H; first compound 0.2 µM) of 1.06. For the same molecule, the relative viability (EPLC-272H; first compound 0.6325 µM) was 0.784, the relative viability (EPLC-272H; first compound 2 µM) was 0.869 and the relative viability (EPLC-272H; first compound 6.325 µM) was 0.869. It also gave a relative viability (EPLC-272H; first compound 20 µM) of 0.667, a relative viability (HCC-15; first compound 0.2 µM) of 1.01 and a relative viability (HCC-15; first compound 0.6325 µM) of 0.708. It also gave a relative viability (HCC-15; first compound 2 µM) of 0.81, a relative viability (HCC-15; first compound 6.325 µM) of 0.999 and a relative viability (HCC-15; first compound 20 µM) of 0.643. It also gave a relative viability (HCC-366; first compound 0.2 µM) of 0.865, a relative viability (HCC-366; first compound 0.6325 µM) of 0.37 and a relative viability (HCC-366; first compound 6.325 µM) of 0.376. For the same molecule, the relative viability (HCC-366; first compound 20 µM) was 0.0102, the relative viability (HCC-44; first compound 0.2 µM) was 0.87 and the relative viability (HCC-44; first compound 0.6325 µM) was 0.647. It also gave a relative viability (HCC-44; first compound 2 µM) of 0.673, a relative viability (HCC-44; first compound 6.325 µM) of 0.801 and a relative viability (HCC-44; first compound 20 µM) of 0.737. For the same molecule, the relative viability (HCC-78; first compound 0.2 µM) was 0.364, the relative viability (HCC-78; first compound 0.6325 µM) was 0.26 and the relative viability (HCC-78; first compound 6.325 µM) was 0.335. For the same molecule, the relative viability (HCC-78; first compound 20 µM) was 0.0523, the relative viability (HCC-827; first compound 0.2 µM) was 1.01 and the relative viability (HCC-827; first compound 0.6325 µM) was 0.896. The relative viability (HCC-827; first compound 2 µM) was 0.877, the relative viability (HCC-827; first compound 6.325 µM) was 0.974 and the relative viability (HCC-827; first compound 20 µM) was 0.948. The relative viability (LCLC-103H; first compound 0.2 µM) was 1.1, the relative viability (LCLC-103H; first compound 0.6325 µM) was 0.966 and the relative viability (LCLC-103H; first compound 2 µM) was 0.793. The relative viability (LCLC-103H; first compound 6.325 µM) was 1.09, the relative viability (LCLC-103H; first compound 20 µM) was 0.935 and the relative viability (NCI-H1437; first compound 0.2 µM) was 1. For the same molecule, the relative viability (NCI-H1437; first compound 0.6325 µM) was 0.972, the relative viability (NCI-H1437; first compound 2 µM) was 1.01 and the relative viability (NCI-H1437; first compound 6.325 µM) was 1.12. It also gave a relative viability (NCI-H1437; first compound 20 µM) of 0.926, a relative viability (NCI-H1792; first compound 0.2 µM) of 0.708 and a relative viability (NCI-H1792; first compound 0.6325 µM) of 0.557. For the same molecule, the relative viability (NCI-H1792; first compound 2 µM) was 0.456, the relative viability (NCI-H1792; first compound 6.325 µM) was 0.754 and the relative viability (NCI-H1792; first compound 20 µM) was 0.687. The relative viability (NCI-H1944; first compound 0.2 µM) was 1.01, the relative viability (NCI-H1944; first compound 0.6325 µM) was 0.719 and the relative viability (NCI-H1944; first compound 6.325 µM) was 0.849. The relative viability (NCI-H1944; first compound 20 µM) was 0.823, the relative viability (NCI-H2085; first compound 0.2 µM) was 1.04 and the relative viability (NCI-H2085; first compound 0.6325 µM) was 0.941. For the same molecule, the relative viability (NCI-H2085; first compound 2 µM) was 0.962, the relative viability (NCI-H2085; first compound 6.325 µM) was 0.554 and the relative viability (NCI-H2085; first compound 20 µM) was 0.35. It also gave a relative viability (NCI-H3122; first compound 0.2 µM) of 0.696, a relative viability (NCI-H3122; first compound 0.6325 µM) of 0.683 and a relative viability (NCI-H3122; first compound 2 µM) of 0.844. It also gave a relative viability (NCI-H3122; first compound 6.325 µM) of 0.628, a relative viability (NCI-H3122; first compound 20 µM) of 0.684 and a relative viability (NCI-H358; first compound 0.2 µM) of 1.17. The relative viability (NCI-H358; first compound 0.6325 µM) was 0.781, the relative viability (NCI-H358; first compound 6.325 µM) was 0.908 and the relative viability (NCI-H358; first compound 20 µM) was 0.0962. It also gave a relative viability (NCI-H661; first compound 0.2 µM) of 0.617, a relative viability (NCI-H661; first compound 0.6325 µM) of 0.581 and a relative viability (NCI-H661; first compound 6.325 µM) of 0.602. The relative viability (NCI-H661; first compound 20 µM) was 0.297, the relative viability (NCI-H727; first compound 0.2 µM) was 0.592 and the relative viability (NCI-H727; first compound 0.6325 µM) was 0.612. The relative viability (NCI-H727; first compound 2 µM) was 0.568, the relative viability (NCI-H727; first compound 6.325 µM) was 0.402 and the relative viability (NCI-H727; first compound 20 µM) was 0.0858. The relative viability (PC-14; first compound 0.2 µM) was 0.839, the relative viability (PC-14; first compound 0.6325 µM) was 1.03 and the relative viability (PC-14; first compound 2 µM) was 0.926. For the same molecule, the relative viability (PC-14; first compound 6.325 µM) was 1.07, the relative viability (PC-14; first compound 20 µM) was 0.905 and the relative viability (SK-LU-1; first compound 0.2 µM) was 1.11. The relative viability (SK-LU-1; first compound 0.6325 µM) was 0.918, the relative viability (SK-LU-1; first compound 2 µM) was 1.04 and the relative viability (SK-LU-1; first compound 6.325 µM) was 0.99. It also gave a relative viability (SK-LU-1; first compound 20 µM) of 0.109, a relative viability (SK-MES-1; first compound 0.2 µM) of 0.885 and a relative viability (SK-MES-1; first compound 0.6325 µM) of 1.02. It also gave a relative viability (SK-MES-1; first compound 2 µM) of 0.747, a relative viability (SK-MES-1; first compound 6.325 µM) of 0.823 and a relative viability (SK-MES-1; first compound 20 µM) of 0.822. It also gave a relative viability (UMC-11; first compound 0.2 µM) of 1.03, a relative viability (UMC-11; first compound 0.6325 µM) of 0.824 and a relative viability (UMC-11; first compound 2 µM) of 1.07. It also gave a relative viability (UMC-11; first compound 6.325 µM) of 1.13 and a relative viability (UMC-11; first compound 20 µM) of 0.899.
